# Data: ChEMBL document CHEMBL3769303, “Discovery of membrane active benzimidazole quinolones-based topoisomerase inhibitors as potential DNA-binding antimicrobial agents” (Eur J Med Chem, 2016)
# System: Salmonella enterica
# Experiment: Antibacterial activity against Salmonella enterica ATCC 14028 by micro broth dilution method
# Type: functional
# Conditions: not given
row,SMILES,MIC [µg/mL]
1,O=C(O)c1cn(C2CC2)c2cc(N3CCN(CCc4nc5ccccc5[nH]4)CC3)c(F)cc2c1=O,1
2,CCn1cc(C(=O)O)c(=O)c2cc(F)c(N3CCN(Cc4nc5ccc(F)cc5[nH]4)CC3)cc21,8
3,CCn1cc(C(=O)O)c(=O)c2cc(F)c(N3CCN(Cc4nc5ccccc5[nH]4)CC3)cc21,0.5
4,O=C(O)c1cn(C2CC2)c2cc(N3CCN(Cc4nc5ccccc5n4Cc4ccc(F)cc4)CC3)c(F)cc2c1=O,16

# System: not listed separately
# Experiment: Antibacterial activity against Bacillus proteus ATCC 13315 by micro broth dilution method
# Type: functional
# Conditions: not given
row,SMILES,MIC [µg/mL]
1,O=C(O)c1cn(C2CC2)c2cc(N3CCN(CCc4nc5ccccc5[nH]4)CC3)c(F)cc2c1=O,2
2,CCn1cc(C(=O)O)c(=O)c2cc(F)c(N3CCN(Cc4nc5ccc(F)cc5[nH]4)CC3)cc21,2
3,CCn1cc(C(=O)O)c(=O)c2cc(F)c(N3CCN(Cc4nc5ccccc5[nH]4)CC3)cc21,0.5
4,O=C(O)c1cn(C2CC2)c2cc(N3CCN(Cc4nc5ccccc5n4Cc4ccc(F)cc4)CC3)c(F)cc2c1=O,16

# System: Escherichia coli
# Experiment: Antibacterial activity against Escherichia coli JM109 by micro broth dilution method
# Type: functional
# Conditions: not given
row,SMILES,MIC [µg/mL]
1,O=C(O)c1cn(C2CC2)c2cc(N3CCN(CCc4nc5ccccc5[nH]4)CC3)c(F)cc2c1=O,2
2,CCn1cc(C(=O)O)c(=O)c2cc(F)c(N3CCN(Cc4nc5ccc(F)cc5[nH]4)CC3)cc21,32
3,CCn1cc(C(=O)O)c(=O)c2cc(F)c(N3CCN(Cc4nc5ccccc5[nH]4)CC3)cc21,4
4,O=C(O)c1cn(C2CC2)c2cc(N3CCN(Cc4nc5ccccc5n4Cc4ccc(F)cc4)CC3)c(F)cc2c1=O,16

# System: Bacillus spizizenii
# Experiment: Antibacterial activity against Bacillus subtilis ATCC 6633 by micro broth dilution method
# Type: functional
# Conditions: not given
row,SMILES,MIC [µg/mL]
1,O=C(O)c1cn(C2CC2)c2cc(N3CCN(CCc4nc5ccccc5[nH]4)CC3)c(F)cc2c1=O,128
2,CCn1cc(C(=O)O)c(=O)c2cc(F)c(N3CCN(Cc4nc5ccc(F)cc5[nH]4)CC3)cc21,8
3,CCn1cc(C(=O)O)c(=O)c2cc(F)c(N3CCN(Cc4nc5ccccc5[nH]4)CC3)cc21,1
4,O=C(O)c1cn(C2CC2)c2cc(N3CCN(Cc4nc5ccccc5n4Cc4ccc(F)cc4)CC3)c(F)cc2c1=O,8

# System: not listed separately
# Experiment: Antifungal activity against Candida mycoderma ATCC 9888 after 24 hrs by micro broth dilution method
# Type: functional
# Conditions: Candida vini
row,SMILES,MIC80 [µg/mL]
1,O=C(O)c1cn(C2CC2)c2cc(N3CCN(CCc4nc5ccccc5[nH]4)CC3)c(F)cc2c1=O,2
2,CCn1cc(C(=O)O)c(=O)c2cc(F)c(N3CCN(Cc4nc5ccc(F)cc5[nH]4)CC3)cc21,1
3,CCn1cc(C(=O)O)c(=O)c2cc(F)c(N3CCN(Cc4nc5ccccc5[nH]4)CC3)cc21,1
4,O=C(O)c1cn(C2CC2)c2cc(N3CCN(Cc4nc5ccccc5n4Cc4ccc(F)cc4)CC3)c(F)cc2c1=O,16

# System: Cyberlindnera jadinii
# Experiment: Antifungal activity against Candida utilis ATCC 9950 after 24 hrs by micro broth dilution method
# Type: functional
# Conditions: Williopsis jadinii, ATCC 9950, 24 h
row,SMILES,MIC80 [µg/mL]
1,O=C(O)c1cn(C2CC2)c2cc(N3CCN(CCc4nc5ccccc5[nH]4)CC3)c(F)cc2c1=O,4
2,CCn1cc(C(=O)O)c(=O)c2cc(F)c(N3CCN(Cc4nc5ccc(F)cc5[nH]4)CC3)cc21,0.25
3,CCn1cc(C(=O)O)c(=O)c2cc(F)c(N3CCN(Cc4nc5ccccc5[nH]4)CC3)cc21,0.5
4,O=C(O)c1cn(C2CC2)c2cc(N3CCN(Cc4nc5ccccc5n4Cc4ccc(F)cc4)CC3)c(F)cc2c1=O,8

# System: Staphylococcus aureus
# Experiment: Antibacterial activity against Staphylococcus aureus ATCC 25923 by micro broth dilution method
# Type: functional
# Conditions: not given
row,SMILES,MIC [µg/mL]
1,O=C(O)c1cn(C2CC2)c2cc(N3CCN(CCc4nc5ccccc5[nH]4)CC3)c(F)cc2c1=O,4
2,CCn1cc(C(=O)O)c(=O)c2cc(F)c(N3CCN(Cc4nc5ccc(F)cc5[nH]4)CC3)cc21,16
3,CCn1cc(C(=O)O)c(=O)c2cc(F)c(N3CCN(Cc4nc5ccccc5[nH]4)CC3)cc21,2
4,O=C(O)c1cn(C2CC2)c2cc(N3CCN(Cc4nc5ccccc5n4Cc4ccc(F)cc4)CC3)c(F)cc2c1=O,16

# System: Shigella dysenteriae
# Experiment: Antibacterial activity against Shigella dysenteriae by micro broth dilution method
# Type: functional
# Conditions: not given
row,SMILES,MIC [µg/mL]
1,O=C(O)c1cn(C2CC2)c2cc(N3CCN(CCc4nc5ccccc5[nH]4)CC3)c(F)cc2c1=O,0.5
2,CCn1cc(C(=O)O)c(=O)c2cc(F)c(N3CCN(Cc4nc5ccc(F)cc5[nH]4)CC3)cc21,8
3,CCn1cc(C(=O)O)c(=O)c2cc(F)c(N3CCN(Cc4nc5ccccc5[nH]4)CC3)cc21,2
4,O=C(O)c1cn(C2CC2)c2cc(N3CCN(Cc4nc5ccccc5n4Cc4ccc(F)cc4)CC3)c(F)cc2c1=O,16

# System: Aspergillus flavus
# Experiment: Antifungal activity against Aspergillus flavus ATCC 204304 after 24 hrs by micro broth dilution method
# Type: functional
# Conditions: ATCC 204304, 24 h
row,SMILES,MIC80 [µg/mL]
1,O=C(O)c1cn(C2CC2)c2cc(N3CCN(CCc4nc5ccccc5[nH]4)CC3)c(F)cc2c1=O,1
2,CCn1cc(C(=O)O)c(=O)c2cc(F)c(N3CCN(Cc4nc5ccc(F)cc5[nH]4)CC3)cc21,0.5
3,CCn1cc(C(=O)O)c(=O)c2cc(F)c(N3CCN(Cc4nc5ccccc5[nH]4)CC3)cc21,0.5
4,O=C(O)c1cn(C2CC2)c2cc(N3CCN(Cc4nc5ccccc5n4Cc4ccc(F)cc4)CC3)c(F)cc2c1=O,8

# System: Candida albicans
# Experiment: Antifungal activity against Candida albicans ATCC 10231 after 24 hrs by micro broth dilution method
# Type: functional
# Conditions: ATCC 10231, 24 h
row,SMILES,MIC80 [µg/mL]
1,O=C(O)c1cn(C2CC2)c2cc(N3CCN(CCc4nc5ccccc5[nH]4)CC3)c(F)cc2c1=O,2
2,CCn1cc(C(=O)O)c(=O)c2cc(F)c(N3CCN(Cc4nc5ccc(F)cc5[nH]4)CC3)cc21,2
3,CCn1cc(C(=O)O)c(=O)c2cc(F)c(N3CCN(Cc4nc5ccccc5[nH]4)CC3)cc21,0.5
4,O=C(O)c1cn(C2CC2)c2cc(N3CCN(Cc4nc5ccccc5n4Cc4ccc(F)cc4)CC3)c(F)cc2c1=O,8

# System: Staphylococcus aureus
# Experiment: Antibacterial activity against methicillin-resistant Staphylococcus aureus N315 by micro broth dilution method
# Type: functional
# Conditions: not given
row,SMILES,MIC [µg/mL]
1,O=C(O)c1cn(C2CC2)c2cc(N3CCN(CCc4nc5ccccc5[nH]4)CC3)c(F)cc2c1=O,4
2,CCn1cc(C(=O)O)c(=O)c2cc(F)c(N3CCN(Cc4nc5ccc(F)cc5[nH]4)CC3)cc21,16
3,CCn1cc(C(=O)O)c(=O)c2cc(F)c(N3CCN(Cc4nc5ccccc5[nH]4)CC3)cc21,1
4,O=C(O)c1cn(C2CC2)c2cc(N3CCN(Cc4nc5ccccc5n4Cc4ccc(F)cc4)CC3)c(F)cc2c1=O,4

# System: Micrococcus luteus
# Experiment: Antibacterial activity against Micrococcus luteus ATCC 4698 by micro broth dilution method
# Type: functional
# Conditions: NCTC 2665
row,SMILES,MIC [µg/mL]
1,O=C(O)c1cn(C2CC2)c2cc(N3CCN(CCc4nc5ccccc5[nH]4)CC3)c(F)cc2c1=O,1
2,CCn1cc(C(=O)O)c(=O)c2cc(F)c(N3CCN(Cc4nc5ccc(F)cc5[nH]4)CC3)cc21,0.5
3,CCn1cc(C(=O)O)c(=O)c2cc(F)c(N3CCN(Cc4nc5ccccc5[nH]4)CC3)cc21,1
4,O=C(O)c1cn(C2CC2)c2cc(N3CCN(Cc4nc5ccccc5n4Cc4ccc(F)cc4)CC3)c(F)cc2c1=O,16

# System: Escherichia coli
# Experiment: Antibacterial activity against Escherichia coli DH52 by micro broth dilution method
# Type: functional
# Conditions: not given
row,SMILES,MIC [µg/mL]
1,O=C(O)c1cn(C2CC2)c2cc(N3CCN(CCc4nc5ccccc5[nH]4)CC3)c(F)cc2c1=O,4
2,CCn1cc(C(=O)O)c(=O)c2cc(F)c(N3CCN(Cc4nc5ccc(F)cc5[nH]4)CC3)cc21,16
3,CCn1cc(C(=O)O)c(=O)c2cc(F)c(N3CCN(Cc4nc5ccccc5[nH]4)CC3)cc21,0.5
4,O=C(O)c1cn(C2CC2)c2cc(N3CCN(Cc4nc5ccccc5n4Cc4ccc(F)cc4)CC3)c(F)cc2c1=O,32

# System: Pseudomonas aeruginosa
# Experiment: Antibacterial activity against Pseudomonas aeruginosa ATCC 27853 by micro broth dilution method
# Type: functional
# Conditions: not given
row,SMILES,MIC [µg/mL]
1,O=C(O)c1cn(C2CC2)c2cc(N3CCN(CCc4nc5ccccc5[nH]4)CC3)c(F)cc2c1=O,0.5
2,CCn1cc(C(=O)O)c(=O)c2cc(F)c(N3CCN(Cc4nc5ccc(F)cc5[nH]4)CC3)cc21,4
3,CCn1cc(C(=O)O)c(=O)c2cc(F)c(N3CCN(Cc4nc5ccccc5[nH]4)CC3)cc21,1
4,O=C(O)c1cn(C2CC2)c2cc(N3CCN(Cc4nc5ccccc5n4Cc4ccc(F)cc4)CC3)c(F)cc2c1=O,8

# System: Saccharomyces cerevisiae
# Experiment: Antifungal activity against Saccharomyces cerevisiae ATCC 9763 after 24 hrs by micro broth dilution method
# Type: functional
# Conditions: ATCC 9763, 24 h
row,SMILES,MIC80 [µg/mL]
1,O=C(O)c1cn(C2CC2)c2cc(N3CCN(CCc4nc5ccccc5[nH]4)CC3)c(F)cc2c1=O,1
2,CCn1cc(C(=O)O)c(=O)c2cc(F)c(N3CCN(Cc4nc5ccc(F)cc5[nH]4)CC3)cc21,0.5
3,CCn1cc(C(=O)O)c(=O)c2cc(F)c(N3CCN(Cc4nc5ccccc5[nH]4)CC3)cc21,0.5
4,O=C(O)c1cn(C2CC2)c2cc(N3CCN(Cc4nc5ccccc5n4Cc4ccc(F)cc4)CC3)c(F)cc2c1=O,16
